What was measured:
[1] = test system: C-IBS subjects with methane; assay: Randomized double-blind trial in methane-positive C-IBS subjects: weekly symptom severity questionnaires (VAS 0-100); format: in vivo, human
Method: Consecutive C-IBS subjects (18-65 yrs of age) (Rome III criteria) were recruited after applying exclusion criteria. All subjects presented for a lactulose breath test after a 12 hour fast. Only subjects with methane level >3 ppm on at least 1 breath sample were enrolled. Subjects then completed a stool diary, questionnaire (100 point VAS scale for bloating, abdominal pain, constipation, diarrhea and straining) and 2 week run in phase. […] Questionnaires were repeated weekly during treatment and for 4 weeks following completion of treatment. On the last week of follow up, the stool diary was repeated.
Consecutive patients (18-65 yrs of age) who fulfilled the Rome II criteria for C-IBS^2 were recruited. Patients were included if they reported <3 complete and spontaneous bowel movements (CSBMs) per week and had breath methane >3 ppm. […] Subjects were also excluded if they had taken an antibiotic or probiotic in the previous 30 days or were currently taking narcotics, proton pump inhibitors, tricyclic antidepressants, or medications known to alter intestinal motility. All subjects provided informed written consent and the study was approved by the institutional review board of all three study sites. Subjects who completed the study received a stipend. The study was registered with clinicaltrials.gov (NCT00945334).
The allocation was concealed. […] The pharmacy, investigators and patients were blinded.
(§1) Following completion of therapy, subjects were asked to continue with the weekly symptom questionnaires for an additional 4 weeks. During the final week of follow up, subjects were asked to repeat the 7-day stool diary followed by the final weekly questionnaire. Finally, subjects were asked to repeat a single fasting breath sample to examine for the presence of methane.
The baseline study questionnaire included subject demographics as well as symptom severity information. Follow-up questionnaires included a repeat evaluation of symptom severity. The following were assessed: abdominal pain, constipation, bloating, urgency, incomplete evacuation, straining and diarrhea. Severity was rated using a visual analog scale (VAS) from 0-100 mm (with 0=no symptom and 100=severe symptoms).
The primary outcome measure of this study was constipation severity as assessed on a VAS score from the first week following completion of the treatment phase. […] In addition, the eradication of methane was evaluated as a determinant of improvement at 4 weeks post therapy.
Data were expressed as mean±SD.
To examine the effect of each group over the duration of the study, a mixed longitudinal model was used. […] The models were analyzed with a single covariate (baseline diarrhea, constipation, abdominal pain, or bloating severity score). […]

[2] = test system: breath methane; assay: Fasting breath sample for methane after therapy in the same trial; format: in vivo, human
Method: as §1
Subjects were asked to fast for 12 hours prior to a breath sample being obtained. Breath samples were collected via a Quintron dual bag collecting system (Quintron Instrument Company, Milwaukee, Wis.). The sampled gas was analyzed using a BreathTracker SC (Quintron Instrument Company, Milwaukee, Wis.). Output was reported as methane in parts per million (ppm) after correction for alveolar sample quality using breath CO2 concentration.
The primary outcome measure of this study was constipation severity as assessed on a VAS score from the first week following completion of the treatment phase. Secondary outcome measures included the severity of constipation, abdominal pain, urgency, bloating and straining over the entire study period. In addition, the eradication of methane was evaluated as a determinant of improvement at 4 weeks post therapy.

[3] = in vivo
Method: All subjects with a diagnosis of C-IBS presented for a fasting breath test after a 12 hour fast. Only subjects with methane level of >3 ppm on a single breath sample were enrolled. Subjects then completed a baseline study questionnaire and a baseline audiogram. […] Subjects were then asked to complete a daily stool diary for two weeks with weekly questionnaires for overall symptom severity. Subjects were eligible for randomization only if they were confirmed to have <3 CSBMs per week during stool diary.
The randomization scheme was set in blocks of 4 and each site received batches of drug in multiples of 4 to balance each study site into blocks. The allocation was concealed. The randomization was done by the drug company with a tracking list provided to the study site pharmacy in a concealed envelope. The pharmacy, investigators and patients were blinded. During the 14 days of treatment, subjects completed weekly symptom questionnaires (2 questionnaires over 2 weeks).
Baseline qualitative data and side effect rates were compared by Fisher's Exact Test. Quantitative baseline data was normal so were compared by t-Test. Data were expressed as mean±SD. The primary endpoint was also normally distributed and compared by t-test.

[4] = test system: methane; details: retrospective study; cited from earlier work
[5] = test system: non-selected population of IBS; details: cited from earlier work
[6] = test system: non-constipated IBS subjects; details: cited from earlier work
[7] = by week 2 of treatment, 100 point VAS, mean±SD

| Compound | bloating severity (VAS) [1, 7] | constipation VAS score [1, 7] | difference in constipation severity between subjects with and without methane ≦3 ppm ([1]; final visit) | VAS score for constipation (primary endpoint) ([1]; one week after completion of 14 days of therapy, ITT, mean±SD) | reduction in methane from baseline (median drop) ([2]; fasting breath sample, final visit vs baseline) [ppm] | subjects with methane levels ≦3 ppm following treatment ([2]; final visit, of 15 subjects (rifaximin plus neomycin), out of 16 subjects (neomycin)) [subjects] | Side effect: Abdominal pain [3] | Side effect: Bloating and distension [3] | Side effect: Constipation [3] | Side effect: Diarrhea [3] | Side effect: Nausea [3] | Side effect: Urgency [3] | benefit of single antibiotic [4] | improvement of IBS compared to placebo [5] | rate of normalizing the breath test [5] | duration of benefits following cessation of therapy ([6]; after 14 days of rifaximin therapy, global symptom rating, bloating, stool consistency, abdominal pain) [months] | efficacy versus placebo in the treatment of IBS ([6]; multiple published randomized trials) |
| --- | --- | --- | --- | --- | --- | --- | --- | --- | --- | --- | --- | --- | --- | --- | --- | --- | --- |
| neomycin | 65.1±25.9 | 57.9±25.0 | no significant difference | 61.2±24.1 | 7.5 | 11 | 6 (38) n(%) | 9 (56) n(%) | 2 (13) n(%) | 2 (13) n(%) | 10 (63) n(%) | 2 (13) n(%) | did not have a substantial benefit | successful in improving IBS | poor rate |  |  |
| CO[C@H]1/C=C/O[C@@]2(C)Oc3c(C)c(O)c4c(O)c(c5c(nc6cc(C)ccn65)c4c3C2=O)NC(=O)/C(C)=C\C=C\[C@H](C)[C@H](O)[C@@H](C)[C@@H](O)[C@@H](C)[C@H](OC(C)=O)[C@@H]1C [Rifaximin, rifaximin] |  |  |  |  |  |  |  |  |  |  |  |  | did not have a substantial benefit |  |  | 3 | superiority over placebo |

From US20160158262A1, “METHODS OF TREATING IRRITABLE BOWEL SYNDROME” (CEDARS-SINAI MEDICAL CENTER, priority 2013, published 2016)
